Experimental data published in patent US20090275070A1, “Compounds and Methods of Identifying, Synthesizing, Optimizing and Profiling Protein Modulators” (priority 2005, published 2009).

Experiments:
[1] = target: T1, Ba/F3 cells expressing p210Bcr-Abl-T315I (Homo sapiens, UniProt P00519, T315I, cells depend on it); assay: phenoresponse-based cellular assay (cell count and viability), Ba/F3 T315I test cells; set-up: species or system murine; conditions: concentration inhibiting growth of the cell line by 50% in the cellular assay, read-out: T315I (IC50 activity category);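 further: cells counted by automated microcell imaging, viability scored by trypan blue exclusion, phenoresponse judged against parental Ba/F3 and Ba/F3 carrying wild-type p210Bcr-Abl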
T1 construct: fused on or other part: P11274 (Breakpoint cluster region protein)

[2] = system: wild type non-transformed Ba/F3 cells; assay: phenoresponse-based cellular assay, wild type Ba/F3 control cells; set-up: species or system murine; conditions: Mus musculus; concentration inhibiting growth of the cell line by 50% in the cellular assay; wt BaF3 control cells; read-out: wt BaF3 (IC50 activity category)

Structure (SMILES) | GI50 [1] | IC50 [2]
Oc1c(Cl)cc(Br)cc1/C=N/Nc1ncc(F)c(N2CCOCC2)n1 | < 0.3 µM | < 1 µM
Oc1ccccc1/C=N/Nc1ncc(F)c(N2CCOCC2)n1 | < 10 µM | < 10 µM
Fc1cnc(N/N=C/c2ccccn2)nc1N1CCOCC1 | < 1 µM | < 1 µM
Oc1ccc(Br)cc1/C=N/Nc1ncc(F)c(N2CCOCC2)n1 | < 1 µM | < 1 µM
Cc1ccccc1/C=N/Nc1ncc(F)c(N2CCOCC2)n1 | > 10 µM | ≥ 10 µM
Cc1ccc(/C=N/Nc2ncc(F)c(N3CCOCC3)n2)cc1 | > 10 µM | ≥ 10 µM
Fc1cnc(N/N=C/c2ccccc2)nc1N1CCOCC1 | > 10 µM | ≥ 10 µM
Oc1c(Cl)cc(-c2cccc(C(F)(F)F)c2)cc1/C=N/Nc1ncc(F)c(N2CCOCC2)n1 | < 0.3 µM | < 1 µM
O=C(Nc1cccc(C(F)(F)F)c1)c1cc(Cl)c(O)c(/C=N\Nc2ncc(F)c(N3CCOCC3)n2)c1 | < 1 µM | < 1 µM
O=C(Nc1cccc(C(F)(F)F)c1)c1cccc(/C=N/Nc2ncc(F)c(N3CCOCC3)n2)n1 | > 10 µM | ≥ 10 µM
O=C(Nc1cccc(C(F)(F)F)c1)c1ccc(/C=N/Nc2ncc(F)c(N3CCOCC3)n2)nc1 | < 1 µM | < 10 µM
Fc1cnc(N/N=C/c2ccc(-c3cccc(C(F)(F)F)c3)cn2)nc1N1CCOCC1 | < 1 µM | < 1 µM
O=C(C/C=N/Nc1ncc(F)c(N2CCOCC2)n1)Nc1cccc(C(F)(F)F)c1 | > 10 µM | ≥ 10 µM
Fc1cnc(N/N=C/c2ccc(Nc3cccc(C(F)(F)F)c3)cn2)nc1N1CCOCC1 | < 0.3 µM | < 0.3 µM
Cc1cccc(Cl)c1NC(=O)C/C=N/Nc1ncc(F)c(N2CCOCC2)n1 | > 10 µM | ≥ 10 µM
Oc1ccc(-c2ccc(Nc3ccc(/C=N/Nc4ncc(F)c(N5CCOCC5)n4)nc3)cc2C(F)(F)F)cc1 | < 0.3 µM | < 0.3 µM
Oc1cccc(-c2ccc(Nc3ccc(/C=N/Nc4ncc(F)c(N5CCOCC5)n4)nc3)cc2)c1 | < 0.3 µM | < 0.3 µM
Fc1cnc(N/N=C/c2ccc(Nc3ccc(N4CCOCC4)cc3)cn2)nc1N1CCOCC1 | < 1 µM | < 1 µM

Structure (SMILES) | GI50 [1] | IC50 [2]
Fc1cnc(N/N=C/c2ccc(Nc3ccc(-c4cccnc4)cc3)cn2)nc1N1CCOCC1 | < 0.3 µM | < 1 µM
Cc1cccc(Cl)c1-c1ccc(Nc2ccc(/C=N/Nc3ncc(F)c(N4CCOCC4)n3)nc2)cc1 | < 0.3 µM | < 0.3 µM
Fc1cnc(N/N=C/c2ccc(Nc3ccc(-c4ccccn4)c(Cl)c3)cn2)nc1N1CCOCC1 | < 1 µM | < 1 µM
CC(C(=O)O)c1ccc(Nc2ccc(/C=N/Nc3ncc(F)c(N4CCOCC4)n3)nc2)cc1 (stereo not drawn) | > 10 µM | ≥ 10 µM
Oc1cccc(-c2cccc(Nc3ccc(/C=N/Nc4ncc(F)c(N5CCOCC5)n4)nc3)c2)c1 | < 0.3 µM | < 1 µM
Fc1cnc(N/N=C/c2ccc(Nc3cccc(-n4ccnc4)c3)cn2)nc1N1CCOCC1 | < 1 µM | < 1 µM
Cc1cc(Nc2ccc(/C=N/Nc3ncc(F)c(N4CCOCC4)n3)nc2)cc(N2CCNCC2)c1 | < 1 µM | < 10 µM
O=C(NNc1ncc(F)c(N2CCOCC2)n1)c1ccc(Nc2cccc(C(F)(F)F)c2)cn1 | < 1 µM | < 1 µM
Cc1cc(Nc2cccc(C(F)(F)F)c2)ccc1/C=N/Nc1ncc(F)c(N2CCOCC2)n1 | > 10 µM | ≥ 10 µM
CN(C)c1cc(O)cc(Nc2ccc(/C=N/Nc3ncc(F)c(N4CCOCC4)n3)nc2)c1 | < 1 µM | < 10 µM
Fc1cnc(N/N=C/c2ccc(Nc3cccc(C(F)(F)F)c3)cn2)nc1NCc1ccccc1 | < 0.3 µM | < 0.3 µM
Fc1cnc(N/N=C/c2ccc(Nc3cccc(C(F)(F)F)c3)cn2)nc1NCC1CC1 | < 0.3 µM | < 0.3 µM
Fc1cnc(N/N=C/c2ccc(Nc3cccc(C(F)(F)F)c3)cn2)nc1NCCN1CCOCC1 | < 0.3 µM | < 0.3 µM
CN(/N=C/c1ccc(Nc2cccc(C(F)(F)F)c2)cn1)c1ncc(F)c(N2CCOCC2)n1 | < 0.3 µM | < 0.3 µM
C/C(=N\Nc1ncc(F)c(N2CCOCC2)n1)c1ccc(Nc2cccc(C(F)(F)F)c2)cn1 | < 0.3 µM | < 0.3 µM
Fc1cnc(N/N=C/c2ccc(Nc3cccc(C(F)(F)F)c3)cn2)nc1-c1cncc(-c2ccccc2)c1 | < 1 µM | < 1 µM
Fc1cnc(N/N=C/c2ccc(Nc3cccc(C(F)(F)F)c3)cn2)nc1-c1cncc(C2CC2)c1 | < 10 µM | < 10 µM
Oc1cccc(Nc2cccc(Nc3ccc(/C=N/Nc4ncc(F)c(N5CCOCC5)n4)nc3)c2)c1 | < 1 µM | < 1 µM
